Two compounds from publication PMC9400797 (Cell, 2022) can be followed below.

In assay [1] the target is T1, cannabinoid receptor 1 (CB1) (Homo sapiens, UniProt P21554). Briefly: GTPase-Glo GTP turnover assay with purified CB1 and Gi1, […] ligand. In kind it is biochemical.
Target sequence in this assay (P21554 whole entry): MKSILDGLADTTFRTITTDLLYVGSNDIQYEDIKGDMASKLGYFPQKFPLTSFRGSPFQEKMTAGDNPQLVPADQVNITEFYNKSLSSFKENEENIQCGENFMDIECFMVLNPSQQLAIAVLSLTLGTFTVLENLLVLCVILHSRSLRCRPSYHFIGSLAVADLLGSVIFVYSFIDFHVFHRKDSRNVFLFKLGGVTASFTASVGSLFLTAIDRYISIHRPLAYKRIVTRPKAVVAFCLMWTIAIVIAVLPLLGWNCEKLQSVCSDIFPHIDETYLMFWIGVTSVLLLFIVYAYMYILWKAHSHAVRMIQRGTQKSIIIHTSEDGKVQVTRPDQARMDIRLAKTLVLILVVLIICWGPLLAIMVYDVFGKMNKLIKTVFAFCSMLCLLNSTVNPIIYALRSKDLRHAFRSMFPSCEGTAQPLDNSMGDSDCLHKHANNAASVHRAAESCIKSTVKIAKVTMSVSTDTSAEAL
Target sequence in this assay (P63096 2-354 partner): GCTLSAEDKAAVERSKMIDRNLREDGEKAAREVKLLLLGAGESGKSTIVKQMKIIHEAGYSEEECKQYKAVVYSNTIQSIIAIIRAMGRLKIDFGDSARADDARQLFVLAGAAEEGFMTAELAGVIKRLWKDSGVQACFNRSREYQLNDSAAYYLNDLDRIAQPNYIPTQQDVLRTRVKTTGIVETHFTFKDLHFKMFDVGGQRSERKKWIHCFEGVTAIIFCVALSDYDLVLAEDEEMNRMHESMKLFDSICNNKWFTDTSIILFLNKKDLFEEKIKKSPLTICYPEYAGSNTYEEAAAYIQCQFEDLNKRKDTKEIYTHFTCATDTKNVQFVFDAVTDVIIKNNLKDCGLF
In assay [2] the target is T1, cannabinoid receptor 1 (CB1). Briefly: CB1 radioligand binding assay.
Target sequence in this assay (P21554 whole entry): as the sequence (P21554 whole entry) above

Turning to `C[C@H](NC(=O)C(C)(C)Oc1ccc(C(F)(F)F)cn1)[C@@H](Cc1ccc(Cl)cc1)c1cccc(C#N)c1` [taranabant], the “GTPase-Glo GTP turnover assay with purified CB1 and Gi1, 20 uM ligand” value in assay [1] was “GTPase-Glo assay reveals rimonabant and taranabant to decrease GTP turnover compared with Apo”. What is called IC50 is the concentration that gives 50% inhibition. Low values mean greater potency in that assay, high ones weaker potency in that assay. In assay [2], BODIPY517/547-genistein had an IC50 of 375 nM.
